The source of these data is patent US8449886B2, “Combination of anti-CTLA4 antibody with tubulin modulating agents for the treatment of proliferative diseases” (Bristol-Myers Squibb Company, priority 2008, dated 2013).

The subject of assay [1] is M109 lung carcinoma. Nature of the assay: M109 lung carcinoma tumor model, initial tumor implantation. The class given is in vivo, mice. As to conditions: for antitumor effect in M109: Study 40, text and FIG. 1. The procedure:
(§1) Tumor cell lines were maintained in vitro. Treatments were initiated when the subcutaneous tumors reached a median size between 100-200 mm^3 (established model) or prior to detection (initiation model). Tumors were measured twice weekly and tumor size (mm^3) was calculated as […]. Body weights were obtained weekly. The tumor models used in these studies are outlined in Table 1.
(§2) The dose levels, routes and dosing schedules are indicated for each particular study described below. Antibodies and chemotherapeutic agents were administered intraperitoneally (i.p.). Each treatment regimen consisted of a cohort of eight to ten mice. Anti-tumor activity, defined as percentage tumor growth inhibition, was calculated as follows: % Tumor Growth Inhibition=100−[(Tt/To)/(Ct/Co)]/100−(Ct/Co) where,
In these studies treatments with chemotherapeutic agents were initiated when tumors were palpable, on day 3 after tumor implantation. […] As in the studies conducted in the SA1N and EMT-6 tumor lines, CTLA-4 mAb was dosed one day after treatment with chemotherapy.

A further assay concerns EMT-6 mammary carcinoma. Description: EMT-6 mammary carcinoma tumor model. The format is in vivo, mice. To be noted: Study 27; for T − C: IP, treatment from day 3/4, ixabepilone 8 mg/kg, paclitaxel 24 mg/kg, CTLA-4 mAb 20 mg/kg. The protocol: as §1, §2
(§3) In addition, another parameter used to define efficacy was to determine time to tumor progression to target size (T-C), where the time (days) for the median tumor size of control (C) mice to reach target size was subtracted to the time for median tumor size of treated (T) mice to reach target size.

A further assay has as its system SA1N fibrosarcoma. Description: SA1N fibrosarcoma tumor model, subcutaneous, established tumors. As to conditions: for T − C: target size 500 mm^3; for % TGI: IP every 4 days x3, ixabepilone 8 mg/kg, CTLA-4 mAb 20 mg/kg. The class given is in vivo, mice. The protocol: Antibody UC10 (hamster IgG anti-mouse CTLA-4) was produced and purified by BMS (Protein Therapeutics Division, Hopewell, N.J., USA). […] Stock solutions of anti-CTLA-4 were kept at −80° C. and were thawed out at 4° C. prior to use. Control antibody consisted of a polyclonal hamster IgG (Jackson ImmunoResearch, West Grove, Pa.). Dosing solutions of Anti-CTLA-4 and hamster IgG control were prepared weekly in sterile phosphate buffered saline (pH 7.0).
Eight to twelve week-old female BALB/c, A/J or C57/BL6 mice were purchased from Harlan, Indianapolis, Ind. Mice received food and water ad libitum, and were maintained in a controlled environment according to AALAC regulations.
as §1, §2
Tt=median tumor size of treated group at the end of treatment
To=median tumor size of treated group at treatment initiation
Ct=median tumor size of control group at the end of treatment
Co=median tumor size at treatment initiation
as §3
Nonparametric analysis using the Wilcoxon test was used to determine statistical significance.
SA1N fibrosarcoma is an inherently immunogenic tumor line which is sensitive to the effects of CTLA-4 blockade. […] Animals were implanted with SA1N cells subcutaneously and treatments were initiated when tumors reached 100-150 mm^3. Experimental groups consisted of cohorts of 8 mice. […] In the combination groups, CTLA-4 mab was administered one day after each chemotherapy treatment.

In the next assay the test system is CT26 colon carcinoma. Nature of the assay: CT26 colon carcinoma tumor model. The class given is in vivo, mice. To be noted: for antitumor effect in CT26: footnotes and FIG. 2. The protocol: as §1
The dose levels, routes and dosing schedules are indicated for each particular study described below. Antibodies and chemotherapeutic agents were administered intraperitoneally (i.p.). Each treatment regimen consisted of a cohort of eight to ten mice. Anti-tumor activity, defined as percentage tumor growth inhibition, was calculated as follows: % Tumor Growth Inhibition=100−[(Tt/To)/(Ct/Co)]/100−(Ct/Co) where, […]

Assay [2] has as its system paclitaxel-sensitive (A2780, HCT116 and LS174T) and paclitaxel-resistant human colon tumors (HCT116NM46), ovarian carcinoma (Pat-7 and A2780Tax) and breast …. Nature of the assay: Preclinical pharmacology studies of Compound 1 in tumor models. The class given is in vivo.
Assay [3] concerns M109 lung carcinoma. Nature of the assay: M109 rechallenge of tumor-free mice with a lethal M109 cell inoculum. The class given is in vivo. To be noted: tumor-free mice by day 97 rechallenged; 5 ixabepilone mice, 8 combination mice. The procedure: To determine whether the combination of CTLA-4+ixabepilone produced a memory immune response able to reject a secondary tumor challenge, animals free of tumors by day 97 were re-challenge with a lethal M109 cell inoculum. For this part of the study, M109 cells were injected into: a) 10 naïve mice (to control for tumor growth); and in study mice free of tumors: b) 5 mice previously treated with ixabepilone and c) 8 mice previously treated with ixabepilone+CTLA-4 mAb. All control mice developed progressive tumors with a median tumor size of 1000 mm^3 10 days later whereas 4 out of 5 mice in the Ixabepilone-treated mice developed tumors (80%).

Assay [4] deals with SA1N fibrosarcoma, M109 lung carcinoma, EMT-6 mammary carcinoma, CT-26 colon carcinoma and B16 melanoma. Description: Efficacy studies of CTLA-4 mAb with ixabepilone or paclitaxel across murine tumor models (summary statements). The format is in vivo, mice. To be noted: animals with complete regressions rechallenged with a lethal dose of tumor cells. The protocol:
as §1, §2, §3

Setting [5] is: Study 17, study terminated day 116.

Regarding “5beta,20-Epoxy-1,2alpha,4,7beta,10beta,13alpha-hexahydroxytax-11-en-9-one 4,10-diacetate 2-benzoate 13-ester with (2R,3S)—N-benzoyl-3-phenylisoserine [Paclitaxel]”, in the assay on M109 lung carcinoma [1], the “antitumor effect in M109” value was “did not produce antitumor effects”. The “antitumor effect of single agent in EMT-6” value in the assay on EMT-6 mammary carcinoma is on record as “ineffective”. The “T − C” value in the assay on EMT-6 mammary carcinoma worked out at 0 days; in the assay on SA1N fibrosarcoma (Study 11, study terminated day 52), 13 days; in the assay on SA1N fibrosarcoma (setting [5]) it was 0 days. Further, the “antitumor effect in SA1N” value with SA1N fibrosarcoma (two independent studies) is “variable effect”. For the same molecule, in the assay with CT26 colon carcinoma, the “antitumor effect in CT26” value is reported as “neither paclitaxel or ixabepilone produced any measurable antitumor activity”.

As for `C/C(=C\c1csc(C)n1)[C@@H]1C[C@@H]2O[C@]2(C)CCC[C@H](C)[C@H](O)[C@@H](C)C(=O)C(C)(C)[C@@H](O)CC(=O)N1` (relative stereo) [Compound 1, [1S-[1R*,3R*(E),7R*,10S*,11R*,12R*,16S*]]-7,11-dihydroxy-8,8,10,12,16-pentamethyl-3-[1-methyl-2-(2-methyl-4-thiazolyl)ethenyl]-4-aza-17-oxabicyclo[14.1.0]heptadecane-5,9-dione], in assay [2] (oral vs parenteral administration), the “oral efficacy” value was “orally efficacious”. The “antitumor activity” value in assay [2] (paclitaxel-sensitive and paclitaxel-resistant tumor models) is “very impressive and broad spectrum of antitumor activity”.

In the case of `C/C(=C\c1csc(C)n1)[C@@H]1C[C@@H]2O[C@]2(C)CCC[C@H](C)[C@H](O)[C@@H](C)C(=O)C(C)(C)[C@@H](O)CC(=O)N1` [Ixabepilone, (1S,3S,7S,10R,11S,12S,16R)-7,11-dihydroxy-8,8,10,12,16-pentamethyl-3-[(1E)-1-methyl-2-(2-methyl-4-thiazolyl)ethenyl]-17-oxa-4-azabicyclo[14.1.0]heptadecane-5,9-dione], the “antitumor effect in M109” value with M109 lung carcinoma [1] was “very effective”. Moreover, the “% Tumor-Free Mice after Initial Tumor Implantation” value with M109 lung carcinoma [1] (Study 40, footnote: percentage of animals that develop tumors following implantation on Day 0, chemotherapy from day 3, IP) is listed as 50%. The “% Tumor-free Mice” value with EMT-6 mammary carcinoma was determined as 20%. The “T − C” value in the assay with EMT-6 mammary carcinoma is 19 days; with SA1N fibrosarcoma (Study 9, study terminated day 39), 11 days; in the assay on SA1N fibrosarcoma (setting [5]) it was 7 days. Further, the “% TGI” value with SA1N fibrosarcoma (Study 9, calculated Day 36 (last measurement for control group)) is reported as 92%; in the assay on SA1N fibrosarcoma (Study 17, calculated Day 33, paclitaxel 24 mg/kg) it was 83%. For the same molecule, the “% Complete Regressions/Total # mice” value in the assay on CT26 colon carcinoma (IP every 4 days x3, CTLA-4 mAb 20 mg/kg days 5, 9, 13, chemotherapy days 4, 8, 12) is 0/10. In addition, the “antitumor effect in CT26” value in the assay on CT26 colon carcinoma is “neither paclitaxel or ixabepilone produced any measurable antitumor activity”. In the assay with M109 lung carcinoma [3], the “mice that developed tumors after M109 rechallenge” value is recorded as 4 out of 5. Further, the “protection against subsequent tumor rechallenge” value in assay [4] is “only partial protection”.
